According to PubChem BioAssay AID1996:
Converted amounts (≈) assume the structure as drawn.

Conditions: buffer; pH 7.4; 200.0 µM

Row | solubility kinetic | Structure (SMILES)
1 | > 0.0557 mg/mL | N#Cc1ccccc1OCC(=O)NCC(c1cccs1)N1CCOCC1 (stereo not given)
2 | 0.0524 mg/mL (≈ 139 µM) | CC(NC(=O)COC(=O)c1cccnc1Cl)C12CC3CC(CC(C3)C1)C2 (stereo not given)
3 | 0.0034 mg/mL (≈ 8.59 µM) | NC(=O)c1ccsc1NC(=O)COC(=O)CNC(=O)c1ccc(Cl)cc1
4 | > 0.0395 mg/mL | O=C(NCc1ccccn1)Nc1ccc(F)cc1F
5 | > 0.0318 mg/mL | Clc1cc(NC2CCCCC2)ncn1
6 | > 0.0397 mg/mL | COc1ccc(NC(=O)C(=S)N2CCCC2)cc1
7 | > 0.0548 mg/mL | O=C(CSC1=NS(=O)(=O)c2ccccc2N1)Nc1ccccc1F
8 | > 0.0556 mg/mL | Cc1nnc(SCC(=O)N(C)CC(=O)Nc2ccccc2Cl)s1
9 | 0.0401 mg/mL (≈ 150 µM) | COc1ccc(OCC(O)CN2CCOCC2)cc1 (stereo not given)
10 | > 0.0411 mg/mL | O=C1CCN(S(=O)(=O)c2ccc(Cl)cc2)CC1
11 | 0.0139 mg/mL (≈ 28.4 µM) | Cc1ccc(C)c(OCCC(=O)OCC(=O)Nc2cc(S(=O)(=O)N3CCCCC3)ccc2C)c1
12 | 0.013 mg/mL (≈ 51.7 µM) | Cn1c(NC(=O)c2ccccc2)nc2ccccc21
13 | 0.0423 mg/mL | Cl.O=C(CCN1CCN(c2ccccc2F)CC1)c1ccc(Br)cc1
14 | 0.015 mg/mL (≈ 47.4 µM) | Cc1ccccc1CCN1CCCC(CN(C)CC(C)(C)C)C1 (stereo not given)
15 | > 0.0466 mg/mL | CC(C)C(NS(=O)(=O)c1ccccc1)C(=O)N1CCCC1 (stereo not given)
16 | > 0.0479 mg/mL | O=C(O)c1nccnc1C(=O)Nc1ccccc1-c1ccccc1
17 | 0.0013 mg/mL (≈ 3.62 µM) | COCc1cc(=O)oc2cc(NS(=O)(=O)c3ccc(C)cc3)ccc12
18 | > 0.0515 mg/mL | C=CCn1c(=O)c2ccccc2n2c(SCC(=O)N(C)C)nnc12
19 | > 0.0353 mg/mL | Cc1ncc([N+](=O)[O-])n1Cc1ccccc1F
20 | > 0.0445 mg/mL | CC(Sc1nccn1C)C(=O)Nc1ccc(Cl)cn1 (stereo not given)

Row | solubility kinetic | Structure (SMILES)
21 | > 0.0371 mg/mL | CCCNC(=O)Cn1c(=O)n(C)c2ccccc21
22 | 0.0019 mg/mL (≈ 6.39 µM) | COC(=O)c1scc(S(=O)(=O)c2ccccc2)c1N
23 | 0.01 mg/mL (≈ 25.9 µM) | CSc1ncccc1C(=O)OCC(=O)Nc1nc(C)c(Cl)cc1Cl
24 | 0.0077 mg/mL (≈ 21.5 µM) | Cc1ccc(NC(=O)CN2CCN(Cc3ccccc3)CC2)cc1Cl
25 | 0.0009 mg/mL (≈ 3.08 µM) | S=C(NCc1ccccc1)Nc1ccc2ccccc2c1
26 | > 0.0527 mg/mL | COC(=O)c1c(C(=O)OC)c(-c2ccc(F)cc2)n2c1CS(=O)C2 (stereo not given)
27 | > 0.044 mg/mL | CCC(=O)Nc1ccccc1-c1nc2ccccc2[nH]c1=O
28 | 0.0329 mg/mL (≈ 111 µM) | CCc1nccn1S(=O)(=O)c1cc(OC)ccc1OC
29 | 0.0032 mg/mL (≈ 9.87 µM) | COc1ccc(CSc2nc(C)[nH]c2[N+](=O)[O-])cc1[N+](=O)[O-]
30 | > 0.0477 mg/mL | O=C(CN1C(=O)NC2NC(=O)NC21)N/N=C/c1ccccc1O (stereo not given)
31 | 0.0319 mg/mL (≈ 121 µM) | OCCNCCCOc1cc(Cl)ccc1Cl
32 | 0.0239 mg/mL (≈ 73.1 µM) | Fc1ccc(CCNC(=S)Nc2ccc(F)c(Cl)c2)cc1
33 | 0.0404 mg/mL (≈ 130 µM) | COCCn1c(=S)[nH]c2sc3c(c2c1=O)CCC(C)C3 (stereo not given)
34 | 0.0131 mg/mL (≈ 36.9 µM) | Cc1ccc2c(COC(=O)CNC(=O)c3ccco3)cc(=O)oc2c1C
35 | 0.0031 mg/mL (≈ 10.1 µM) | COc1ccc(OC)c(/C=C/c2nc3ccccc3[nH]c2=O)c1
36 | > 0.0439 mg/mL | N#Cc1c(NC(=O)CCC(=O)O)sc2c1CCCCC2
37 | > 0.053 mg/mL | O=C(O)c1cccc(S(=O)(=O)Nc2ccc(-c3ccccc3)cc2)c1
38 | 0.0013 mg/mL (≈ 3.83 µM) | CCOC(=O)Cc1csc(NC(=O)Nc2ccc(Cl)cc2)n1
39 | 0.0272 mg/mL (≈ 91.8 µM) | Cc1cccc(NC(=O)C2CCCN(c3cnccn3)C2)c1 (stereo not given)
40 | > 0.0569 mg/mL | Cc1ccc(NC(=O)c2c(C)noc2C)cc1S(=O)(=O)N1CCOCC1

Row | solubility kinetic | Structure (SMILES)
41 | 0.0471 mg/mL (≈ 142 µM) | Cc1ccc(C)c(NC(=O)Cc2nc(CNCC(C)C)cs2)c1
42 | > 0.0424 mg/mL | Cc1ccc(C(=O)N2CCN(c3ncccn3)CC2)cc1
43 | 0.0589 mg/mL (≈ 134 µM) | CCN(CC(=O)NCc1ccc(F)cc1)CC(=O)Nc1ccc(Br)cc1F
44 | < 0.0004 mg/mL | COc1ccc(Cl)cc1NC(=O)NCc1ccc2c(c1)OCO2
45 | > 0.0752 mg/mL | CCN1CCN(CC(=O)Nc2cc(S(=O)(=O)N(CC)c3ccccc3)ccc2Cl)CC1.Cl
46 | 0.0116 mg/mL (≈ 45.4 µM) | O=C1C2C3CCC(CC3)C2C(=O)N1c1ccccc1 (stereo not given)
47 | 0.0016 mg/mL (≈ 3.95 µM) | COCCNC(=O)c1cc2cc(Br)cc(Br)c2oc1=O
48 | 0.0013 mg/mL (≈ 3.89 µM) | COc1ccc(CCNC(=O)c2ccc(Br)cc2)cc1
49 | > 0.0434 mg/mL | CCC(C)NC(=O)Cn1nc(C(F)(F)F)c2c1CCC2 (stereo not given)
50 | > 0.0485 mg/mL | COC(=O)c1ccccc1NC(=O)COC(=O)[C@H](C)NC(N)=O
51 | 0.0163 mg/mL (≈ 51 µM) | Cc1cc(NC(=O)C2CC(=O)N(c3cccc(Cl)c3)C2)no1 (stereo not given)
52 | > 0.0565 mg/mL | O=C(O)C1c2ccccc2C(=O)N(Cc2ccc(F)cc2)C1c1ccncc1 (stereo not given)
53 | 0.0031 mg/mL (≈ 9.33 µM) | C=Cc1cccc(NC(=O)c2ccc(NC(=O)c3ccco3)cc2)c1
54 | 0.004 mg/mL (≈ 12.6 µM) | CCCCNC(=O)CSc1nc(CCC)nc2ccccc12
55 | > 0.0373 mg/mL | CC(C)c1ccc(NC(=S)N2CCCC2)cc1
56 | 0.0065 mg/mL (≈ 20 µM) | COC(=O)c1scc(C)c1S(=O)(=O)Nc1ccc(C)cc1
57 | > 0.0381 mg/mL | CC(C)Cn1c(S(=O)(=O)O)nc2ccccc21
58 | 0.0045 mg/mL (≈ 15.5 µM) | O=C(Cc1ccc([N+](=O)[O-])cc1)Nc1ccc(Cl)cc1
59 | 0.0317 mg/mL (≈ 86.2 µM) | Nc1ccc(N2CCOCC2)c(S(=O)(=O)Nc2ccccc2Cl)c1

Row | Structure (SMILES) | solubility kinetic
60 | Cc1ccc2[nH]c(C)c(CCNCc3cccnc3)c2c1.Cl | 0.0471 mg/mL
